The source of these data is US20230041996A1, “CALCIUM-SENSING RECEPTOR AGONIST COMPOUND AND APPLICATION THEREOF” (BEIJING TUO JIE BIOPHARMACEUTICAL CO. LTD., priority 2019, published 2023).

Square brackets hold non-standard residues; d marks the D form. Peptide text beside a SMILES is read from it. * marks the point of attachment. Cys(free,S-linked) = N[C@@H](CS*)C(=O)O

Holding throughout (format): cell-based
The target of data set [1] is T1, human calcium-sensing receptor (CaSR) (Homo sapiens, UniProt P41180).
T1 construct: host or cells: HEK293
T1 sequence (P41180 20-1078): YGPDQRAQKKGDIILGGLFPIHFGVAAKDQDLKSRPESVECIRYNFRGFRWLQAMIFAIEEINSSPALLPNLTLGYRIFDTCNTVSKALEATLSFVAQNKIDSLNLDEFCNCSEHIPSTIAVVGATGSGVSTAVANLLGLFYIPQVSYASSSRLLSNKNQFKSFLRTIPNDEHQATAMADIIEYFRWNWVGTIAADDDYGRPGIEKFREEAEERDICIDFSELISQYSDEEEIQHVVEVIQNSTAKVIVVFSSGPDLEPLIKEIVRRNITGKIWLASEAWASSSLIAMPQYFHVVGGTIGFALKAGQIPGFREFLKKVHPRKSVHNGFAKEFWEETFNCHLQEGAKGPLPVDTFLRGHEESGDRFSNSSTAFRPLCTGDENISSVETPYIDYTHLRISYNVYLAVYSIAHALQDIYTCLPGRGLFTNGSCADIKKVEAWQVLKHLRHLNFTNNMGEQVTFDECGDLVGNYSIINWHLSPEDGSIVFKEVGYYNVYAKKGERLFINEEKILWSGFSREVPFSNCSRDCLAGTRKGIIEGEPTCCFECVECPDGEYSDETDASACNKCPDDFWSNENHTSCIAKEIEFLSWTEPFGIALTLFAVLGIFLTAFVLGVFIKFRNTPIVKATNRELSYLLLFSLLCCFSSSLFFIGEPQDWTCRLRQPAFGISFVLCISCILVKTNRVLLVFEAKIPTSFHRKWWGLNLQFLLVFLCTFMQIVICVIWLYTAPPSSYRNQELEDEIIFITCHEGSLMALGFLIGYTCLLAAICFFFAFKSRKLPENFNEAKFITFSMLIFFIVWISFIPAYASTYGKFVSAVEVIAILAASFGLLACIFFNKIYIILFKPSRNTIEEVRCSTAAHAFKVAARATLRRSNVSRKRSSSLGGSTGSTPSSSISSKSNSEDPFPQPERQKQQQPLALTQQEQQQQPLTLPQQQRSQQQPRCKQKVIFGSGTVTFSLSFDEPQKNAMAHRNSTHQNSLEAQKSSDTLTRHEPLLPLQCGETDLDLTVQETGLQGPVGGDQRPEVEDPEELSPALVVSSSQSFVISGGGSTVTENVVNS
Description: Agonist activity on human calcium-sensing receptor (IP-One HTRF in stably transfected HEK293/CaSR cells). As to conditions: HEK293/CaSR cells, IP-One production, 60 min at 37° C., CaCl2 1.2 mM; read-out: EC50 for calcium-sensing receptor. The procedure, abridged:
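HEK293 cells stably expressing CaSR stimulated 60 min at 37 °C with compounds in buffer containing 1.2 mM CaCl2, 0.5 mM MgCl2 and 50 mM LiCl. IP-One accumulation measured by HTRF (665/620 nm ratio); EC50 from four-parameter fit.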
In general terms: TR-FRET usually uses a lanthanide donor and a delayed reading to cut background.

Data set [2] concerns rat peritoneal mast cells. Kind of data set: In vitro histamine release in rat peritoneal mast cells (histamine ELISA). In short, it runs like this:
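Rat peritoneal mast cells, washed into HBSS + 25 mM HEPES + 1 mM CaCl2 (pH 7.4), were exposed to test compounds at 10 μM final, 48/80 at 4 μg/mL or vehicle for 15 min at 37° C. Histamine released into the supernatant was quantified by ELISA.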
(In general: In an ELISA, binding on a coated surface is turned into a signal by an enzyme label.)

In another data set the test system is human red blood cells. Description: Hemolytic effect on human red blood cells in vitro (absorbance at 540 nm). As to conditions: 100 μg/mL in PBS, 37° C., 1 h, FIG. 1. As for the experimental part: To evaluate the hemolytic effect of the compounds disclosed herein on red blood cells in vitro, human whole blood (100 μL) was taken and mixed with a phosphate buffer. The mixture was centrifuged at 4° C. for 10 min and the supernatant was discarded. The red blood cells were resuspended in PBS buffer (900 μL) and centrifuged at 4° C. for 10 min with the supernatant discarded, and the procedures above were repeated once. The test example compounds were dissolved in 1×PBS buffer to a final concentration of 100 μg/mL. The red blood cells were resuspended in solutions of various test example compounds, an octylphenoxy poly(ethyleneoxy)ethanol-100 solution or PBS buffer, and incubated at 37° C. for 1 h. After incubation, the cells were centrifuged at 4° C. for 10 min and the supernatant (100 μL) was pipetted and transferred to a 96-well plate. The absorbance at 540 nm was detected for evaluating the hemolytic effect of the test example compounds on red blood cells in vitro.

As usually defined, the EC50 is the concentration at which the effect is half-maximal. On to `CC(=O)N[C@H](CSSC[C@H](N)C(=O)O)C(=O)N[C@H](CCCNC(=N)N)C(=O)N[C@H](CCCNC(=N)N)C(=O)N[C@@H](C(=O)N[C@H](CCCNC(=N)N)C(=O)N[C@H](CO)C(=O)N[C@H](CCCNC(=N)N)C(N)=O)C(C)C` [Compound 29, Ac-c(C)-r-r-v-r-s-r-NH2] (Ac-[dC](Cys(free,S-linked))[dR][dR][dV][dR][dS][dR]-NH2), for which the EC50 in data set [1] was determined as 9.8 µM. The “histamine release levels in rat peritoneal mast cells in vitro relative to etelcalcetide” value in data set [2] (10 μM, comparison with etelcalcetide) is “reduction in histamine release levels”. The “Relative fold of histamine release in vitro” value in data set [2] (test compound final concentration 10 μM, 15 min at 37° C., relative to PBS buffer (1.00)) was 0.99. In addition, the “hemolytic effect on red blood cells” value in the data set with human red blood cells is recorded as “no significant hemolytic effect”.
